Data on two compounds can be found in ChEMBL document CHEMBL4673372, “1,2,3-triazole-thiazole hybrids: Synthesis, in vitro antimicrobial activity and antibiofilm studies” (Bioorg Med Chem Lett, 2021).

Assay [1] has as its system Candida albicans. Put plainly: Inhibition of biofilm formation in Candida albicans MTCC 3017 incubated for 24 hrs by crystal violet staining based microtiter plate method. The class given is functional, organism-based.
Assay [2] relates to Pseudomonas aeruginosa. Put plainly: Inhibition of biofilm formation in Pseudomonas aeruginosa MTCC 2453 incubated for 24 hrs by crystal violet staining based microtiter plate method. The class given is functional, organism-based.
Assay [3] concerns Escherichia coli. Put plainly: Inhibition of biofilm formation in Escherichia coli MTCC 739 incubated for 24 hrs by crystal violet staining based microtiter plate method. The class given is functional, organism-based.
Assay [4] deals with Raoultella planticola. Put plainly: Inhibition of biofilm formation in Klebsiella planticola MTCC 530 incubated for 24 hrs by crystal violet staining based microtiter plate method. The class given is functional, organism-based.
Assay [5] relates to Micrococcus luteus. Put plainly: Inhibition of biofilm formation in Micrococcus luteus MTCC 2470 incubated for 24 hrs by crystal violet staining based microtiter plate method. In kind it is functional, organism-based.
Assay [6] concerns Bacillus subtilis. Put plainly: Inhibition of biofilm formation in Bacillus subtilis MTCC 121 incubated for 24 hrs by crystal violet staining based microtiter plate method. In kind it is functional, organism-based.
Assay [7] relates to Staphylococcus aureus. As to the kind of experiment: Inhibition of biofilm formation in Staphylococcus aureus MLS16 MTCC 2940 incubated for 24 hrs by crystal violet staining based microtiter plate method. In kind it is functional, organism-based.
Assay [8] deals with Staphylococcus aureus. As to the kind of experiment: Inhibition of biofilm formation in Staphylococcus aureus […] incubated for 24 hrs by crystal violet staining based microtiter plate method. The class given is functional, organism-based.
The test system of assay [9] is Escherichia coli. As to the kind of experiment: Bactericidal activity against Escherichia coli MTCC 739. The class given is functional.
Assay [10] deals with Micrococcus luteus. Put plainly: Bactericidal activity against Micrococcus luteus MTCC 2470. The class given is functional.
For assay [11], the system named is Bacillus subtilis. Put plainly: Bactericidal activity against Bacillus subtilis MTCC 121. The class given is functional.
Assay [12] deals with Pseudomonas aeruginosa. As to the kind of experiment: Antibacterial activity against Pseudomonas aeruginosa MTCC 2453 assessed as inhibition of bacterial growth by microtiter broth dilution method. In kind it is functional. A general note: In broth dilution the organism is exposed to a series of concentrations in liquid medium.
Assay [13] relates to Escherichia coli. As to the kind of experiment: Antibacterial activity against Escherichia coli MTCC 739 assessed as inhibition of bacterial growth by microtiter broth dilution method. In kind it is functional.
In assay [14] the test system is Raoultella planticola. Put plainly: Antibacterial activity against Klebsiella planticola MTCC 530 assessed as inhibition of bacterial growth by microtiter broth dilution method. In kind it is functional.
In assay [15] the test system is Micrococcus luteus. As to the kind of experiment: Antibacterial activity against Micrococcus luteus MTCC 2470 assessed as inhibition of bacterial growth by microtiter broth dilution method. The class given is functional.
The subject of assay [16] is Bacillus subtilis. As to the kind of experiment: Antibacterial activity against Bacillus subtilis MTCC 121 assessed as inhibition of bacterial growth by microtiter broth dilution method. In kind it is functional.
Assay [17] deals with Staphylococcus aureus. As to the kind of experiment: Antibacterial activity against Staphylococcus aureus MLS16 MTCC 2940 assessed as inhibition of bacterial growth by microtiter broth dilution method. The class given is functional.
The test system of assay [18] is Staphylococcus aureus. Put plainly: Antibacterial activity against Staphylococcus aureus MTCC 96 assessed as inhibition of bacterial growth by microtiter broth dilution method. The class given is functional.
The subject of assay [19] is Pichia sporocuriosa. Put plainly: Antifungal activity against Issatchenkia hanoiensis MTCC 4755. In kind it is functional.
The subject of assay [20] is Pichia kudriavzevii. As to the kind of experiment: Antifungal activity against Candida krusei MTCC 3020. The class given is functional.
For assay [21], the system named is Nakaseomyces glabratus. As to the kind of experiment: Antifungal activity against Candida glabrata MTCC 3019. The class given is functional.
Assay [22] concerns [Candida] aaseri. Put plainly: Antifungal activity against Candida aaseri MTCC 1962. The class given is functional. The conditions noted are these: Yamadazyma aaseri.
The subject of assay [23] is Candida parapsilosis. Put plainly: Antifungal activity against Candida parapsilosis MTCC 1745. The class given is functional. The following applies: Lodderomyces parapsilosis.
The subject of assay [24] is Candida albicans. As to the kind of experiment: Antifungal activity against Candida albicans MTCC 4748. In kind it is functional.
Assay [25] deals with Candida albicans. Put plainly: Antifungal activity against Candida albicans MTCC 3958. In kind it is functional.
For assay [26], the system named is Candida albicans. Put plainly: Antifungal activity against Candida albicans MTCC 3018. The class given is functional.
Assay [27] relates to Candida albicans. Put plainly: Antifungal activity against Candida albicans MTCC 1637. In kind it is functional.
In assay [28] the test system is Candida albicans. As to the kind of experiment: Antifungal activity against Candida albicans MTCC 854. The class given is functional.
The subject of assay [29] is Candida albicans. As to the kind of experiment: Fungicidal activity against Candida albicans MTCC 183. In kind it is functional.
For assay [30], the system named is Candida albicans. As to the kind of experiment: Antifungal activity against Candida albicans MTCC 227. In kind it is functional.
The subject of assay [31] is Candida albicans. As to the kind of experiment: Antifungal activity against Candida albicans MTCC 183. The class given is functional.

In brackets after ≈: the same amount, converted by molar mass.

As to `COc1ccc(-n2cc(COc3ccc(/C=N/Nc4nc(-c5cc6cc(Br)cc(Br)c6oc5=O)cs4)cc3)nn2)cc1`, the IC50 result in assay [1] was “Not Active”; in assay [2] (Pseudomonas aeruginosa, MTCC 2453, 24 h, read-out: IC50), 110 µM; in assay [3], “Not Active”; in assay [4] it was “Not Active”; in [5] (Micrococcus luteus, MTCC 2470, 24 h, read-out: IC50), 45.1 µM; in assay [6] (Bacillus subtilis, MTCC 121, 24 h, read-out: IC50), 42.6 µM. The IC50 result in [7] and in assay [8] was “Not Active” in each case. Also, the MBC in assay [9], in [10] and in [11] was 11 µM (≈ 7.79 µg/mL) in each case. Also, the MIC was above 176 µM in assay [12]; 5.5 µM (≈ 3.9 µg/mL) in assay [13]; above 176 µM in assay [14]; 5.5 µM (≈ 3.9 µg/mL) in [15]; 5.5 µM (≈ 3.9 µg/mL) in [16]; above 176 µM in [17]. Moreover, the MIC in assay [18] is above 176 µM.
As for `COc1ccc(-n2cc(COc3ccc(/C=N/Nc4nc(-c5cc6cc([N+](=O)[O-])cc([N+](=O)[O-])c6oc5=O)cs4)cc3)nn2)cc1`, the IC50 entry in assay [1], in assay [2], in [3], in assay [4], in [5] and in assay [6] was “Not Active” in each case. Besides, the IC50 entry in assay [7] and in [8] was “Not Active” each time. Also, the MIC in assay [19], in [20], in [21], in [22], in assay [23] and in [24] was above 195 µM each time. For the same compound, the minimal inhibitory concentration (MIC) in [25] was above 195 µM; in assay [26], above 195 µM; in [27], above 195 µM; in [28] it was above 195 µM; in assay [30] it was above 195 µM; in [31] it was 6.1 µM (≈ 3.91 µg/mL). In addition, the MIC in assay [12], in [13], in assay [14], in assay [15], in assay [16] and in assay [17] was above 195 µM throughout. In assay [18], the minimal inhibitory concentration (MIC) is above 195 µM. Besides, the MFC in [29] and in assay [31] was 12.2 µM (≈ 7.82 µg/mL) in each case.

The term IC50 denotes the concentration needed to halve the response being measured. As a reminder, the MBC is the smallest concentration meeting the test's criterion for killing. Higher therefore signals less potent killing. By MIC is commonly meant the lowest concentration found to suppress growth. Usually MFC stands for the smallest concentration meeting the test's criterion for killing the fungus. Low values mean greater fungicidal potency, high ones weaker fungicidal potency.
